Holding throughout (assay): NCI 60 cell line single dose screen (SRB)
What all share (type): cell-based

One assay concerns K-562. Conditions: Homo sapiens, K562; K-562 (leukemia), single dose 10^−5 M, 48 h; read-out: Growth inhibition percentage. The essentials:
(§1)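 Cells were plated and grown 24 h at 37 °C, 5% CO2 before compound addition from DMSO stock, then exposed 48 h. Adherent cells were fixed with cold TCA (final 10%) and suspension cells with 16% TCA. SRB-stained protein was read at 515 nm and percent growth was calculated against time-zero and untreated plates.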

Another assay concerns HS 578T. Conditions: Homo sapiens; HS 578T (breast cancer), single dose 10^−5 M, 48 h; read-out: Growth inhibition percentage. The essentials:
as §1

In a further assay the test system is SW-620. Conditions: Homo sapiens; SW-620 (colon cancer), single dose 10^−5 M, 48 h; read-out: Growth inhibition percentage. The essentials: as §1
The next assay concerns SK-OV-3. Conditions: Homo sapiens; SK-OV-3 (ovarian cancer), single dose 10^−5 M, 48 h; read-out: Growth inhibition percentage. The essentials: as §1
In the next assay the test system is MDA-MB-231/ATCC. The following applies: Homo sapiens; MDA-MB-231/ATCC (breast cancer), single dose 10^−5 M, 48 h; read-out: Growth inhibition percentage. The method, boiled down: as §1
Another assay deals with CCRF-CEM. Conditions: Homo sapiens; CCRF-CEM (leukemia), single dose 10^−5 M, 48 h; read-out: Growth inhibition percentage. The method, boiled down: as §1
Another assay concerns NCI-H522. The following applies: Homo sapiens; NCI-H522 (non-small cell lung cancer), single dose 10^−5 M, 48 h; read-out: Growth inhibition percentage. The method, boiled down: as §1
Another assay deals with EKVX. Conditions: Homo sapiens; EKVX (non-small cell lung cancer), single dose 10^−5 M, 48 h; read-out: Growth inhibition percentage. The essentials: as §1
The subject of the next assay is HT29. Conditions: Homo sapiens, HT-29; HT29 (colon cancer), single dose 10^−5 M, 48 h; read-out: Growth inhibition percentage. The essentials:
as §1

For another assay, the system named is NCI-H322M. Conditions: Homo sapiens; NCI-H322M (non-small cell lung cancer), single dose 10^−5 M, 48 h; read-out: Growth inhibition percentage. The essentials: as §1
The test system of another assay is M14. Conditions: Homo sapiens; M14 (melanoma), single dose 10^−5 M, 48 h; read-out: Growth inhibition percentage. The method, boiled down: as §1
For the next assay, the system named is MOLT-4. The following applies: Homo sapiens; MOLT-4 (leukemia), single dose 10^−5 M, 48 h; read-out: Growth inhibition percentage. The method, boiled down: as §1
The subject of another assay is MALME-3M. The following applies: Homo sapiens; MALME-3M (melanoma), single dose 10^−5 M, 48 h; read-out: Growth inhibition percentage. The method, boiled down:
as §1

The subject of the next assay is PC-3. Conditions: Homo sapiens; PC-3 (prostate cancer), single dose 10^−5 M, 48 h; read-out: Growth inhibition percentage. The essentials: as §1
A further assay concerns OVCAR-5. Conditions: Homo sapiens; OVCAR-5 (ovarian cancer), single dose 10^−5 M, 48 h; read-out: Growth inhibition percentage. The essentials:
as §1

In the next assay the test system is T-47D. Conditions: Homo sapiens, T47D; T-47D (breast cancer), single dose 10^−5 M, 48 h; read-out: Growth inhibition percentage. The method, boiled down:
as §1

The subject of the next assay is SK-MEL-28. Conditions: Homo sapiens; SK-MEL-28 (melanoma), single dose 10^−5 M, 48 h; read-out: Growth inhibition percentage. The essentials:
as §1

In another assay the test system is UACC-257. The following applies: Homo sapiens; UACC-257 (melanoma), single dose 10^−5 M, 48 h; read-out: Growth inhibition percentage. The essentials: as §1
Another assay relates to RPMI-8226. The following applies: Homo sapiens; RPMI-8226 (leukemia), single dose 10^−5 M, 48 h; read-out: Growth inhibition percentage. The essentials: as §1
Another assay has as its system HOP-92. Conditions: Homo sapiens; HOP-92 (non-small cell lung cancer), single dose 10^−5 M, 48 h; read-out: Growth inhibition percentage. The method, boiled down:
as §1

The test system of a further assay is UO-31. Conditions: Homo sapiens; UO-31 (renal cancer), single dose 10^−5 M, 48 h; read-out: Growth inhibition percentage. The essentials:
as §1

Usually inhibition stands for the relative decrease from the control value, in per cent. Turning to `Cc1nn(-c2ccc(F)cc2)c2ncnc(N3CCOCC3)c12` [Compound 8a, 1–(4-Fluorophenyl)-3-methyl-4-morpholino-1H-pyrazolo[3,4-d]pyrimidine], the inhibition at 10 µM with K-562 was -3.68%; in the assay with HS 578T it was -4.78%; in the assay on SW-620, -4.76%; in the assay with SK-OV-3 it was -7.07%; with MDA-MB-231/ATCC, -10.4%; in the assay with CCRF-CEM it was 2.31%. For the same molecule, the inhibition at 10 µM is 8.03% with NCI-H522; 19.5% with EKVX; 7.56% in the assay on HT29; 5.51% in the assay on NCI-H322M; -4.47% in the assay on M14; 5.79% with MOLT-4. The inhibition at 10 µM in the assay on MALME-3M was -10.5%; in the assay on PC-3, 5.06%; in the assay on OVCAR-5, -3.95%; in the assay with T-47D, -22.2%; in the assay with SK-MEL-28, -12.6%; in the assay with UACC-257, -5.9%. For the same molecule, the inhibition at 10 µM in the assay on RPMI-8226 was found to be 2%; in the assay on HOP-92, 9.27%; with UO-31, 5.57%.

For `Cc1nn(-c2ccc(F)cc2)c2ncnc(N)c12` [Compound 4, 1–(4-Fluorophenyl)-3-methyl-1H-pyrazolo[3,4-d]pyrimidin-4-amine], the inhibition at 10 µM in the assay on K-562 was 1.98%; with HS 578T, -4.94%; in the assay with SW-620, -18.7%; in the assay with SK-OV-3, -5.01%; in the assay with MDA-MB-231/ATCC, -10.8%; with CCRF-CEM, -12.7%. For the same molecule, the inhibition at 10 µM with NCI-H522 is 6.49%; in the assay on EKVX, 19.1%; with HT29, 3.34%; with NCI-H322M, 7.26%; with M14, -3.62%; with MOLT-4, 0.58%. The inhibition at 10 µM was 5.86% in the assay on MALME-3M; 1.03% in the assay with PC-3; -4.61% in the assay with OVCAR-5; 4.18% with T-47D; -3.55% with SK-MEL-28; -14.2% with UACC-257. In addition, the inhibition at 10 µM in the assay on RPMI-8226 is -17.5%; in the assay on HOP-92, -1.54%; in the assay with UO-31, 11.3%.

Turning to `COc1cc(C=NNc2ncnc3c2c(C)nn3-c2ccc(F)cc2)cc(OC)c1OC` [Compound 10c, 1–(4-Fluorophenyl)-3-methyl-4–(2-(3,4,5-trimethoxybenzylidene)-hydrazinyl)-1H-pyrazolo[3,4-d]pyrimidine], the inhibition at 10 µM with K-562 is -3.02%; in the assay on HS 578T it was 13.9%; with SW-620, -11.7%; with SK-OV-3 it was 7.06%; in the assay with MDA-MB-231/ATCC it was 16.5%; with CCRF-CEM, 4.81%. The inhibition at 10 µM with NCI-H522 stood at 7.26%; in the assay with EKVX, 10%; with HT29, 8.83%; in the assay on NCI-H322M it was 13.5%; with M14 it was 2.73%; with MOLT-4, 7.03%. Moreover, the inhibition at 10 µM was 12.6% in the assay on MALME-3M; 16.5% in the assay with PC-3; -11.4% with OVCAR-5; 16.8% with T-47D; 1.3% with SK-MEL-28; 0.35% in the assay on UACC-257. Also, the inhibition at 10 µM in the assay with RPMI-8226 came to 1.29%; with HOP-92 it was 40.4%; in the assay with UO-31, 31.1%.

Regarding `COc1ccc(N2CCN(c3ncnc4c3c(C)nn4-c3ccc(F)cc3)CC2)cc1` [Compound 8d, 1–(4-Fluorophenyl)-4–(4-(4-methoxyphenyl)piperazin-1-yl)-3-methyl-1H-pyrazolo[3,4-d]pyrimidine], the inhibition at 10 µM was -4% in the assay on K-562; 5.99% with HS 578T; -0.63% with SW-620; 3.69% with SK-OV-3; 2.36% with MDA-MB-231/ATCC; 0.86% in the assay with CCRF-CEM. For the same molecule, the inhibition at 10 µM was 3.59% in the assay with NCI-H522; 7.21% in the assay on EKVX; -1.26% in the assay on HT29; 1.5% with NCI-H322M; 3.95% with M14; 3.49% with MOLT-4. Further, the inhibition at 10 µM with MALME-3M is 5.14%; in the assay with PC-3, 12.5%; in the assay on OVCAR-5, -7.96%; in the assay with T-47D, 3.85%; with SK-MEL-28, -8.74%; with UACC-257 it was -6.35%. The inhibition at 10 µM is 6.45% with RPMI-8226, 4.73% with HOP-92 and 21.3% in the assay on UO-31.

Regarding `Cc1nn(-c2ccc(F)cc2)c2nc(N)nc(N)c12` [Compound 5, 1–(4-Fluorophenyl)-3-methyl-1H-pyrazolo[3,4-d]pyrimidine-4,6-diamine], the inhibition at 10 µM in the assay on K-562 is -11.9%; in the assay with HS 578T it was -3.27%; in the assay on SW-620, -16.8%; with SK-OV-3, -6.26%; in the assay with MDA-MB-231/ATCC, -9.11%; in the assay on CCRF-CEM, -16.8%. Further, the inhibition at 10 µM with NCI-H522 is 2.08%; in the assay on EKVX it was 6.25%; with HT29, -6.5%; in the assay on NCI-H322M it was 8.14%; in the assay on M14, -2.93%; with MOLT-4, -0.48%. The inhibition at 10 µM in the assay with MALME-3M is -7.8%; in the assay on PC-3, 3.59%; in the assay on OVCAR-5, -1.61%; in the assay on T-47D, -2.65%; with SK-MEL-28, -4.89%; with UACC-257, -18.7%. The inhibition at 10 µM is -3.69% in the assay with RPMI-8226, 1.64% with HOP-92 and 14.2% with UO-31.

As to `Cc1nn(-c2ccc(F)cc2)c2ncnc(NN)c12` [Compound 9, 1–(4-Fluorophenyl)-4-hydrazinyl-3-methyl-1H-pyrazolo[3,4-d]-pyrimidine], the inhibition at 10 µM is -3.06% in the assay on K-562; -4.22% with HS 578T; -8.79% in the assay on SW-620; 7.98% in the assay on SK-OV-3; 23.1% with MDA-MB-231/ATCC; 30.9% in the assay on CCRF-CEM. Further, the inhibition at 10 µM was 10.3% in the assay with NCI-H522; 17% in the assay with EKVX; 1.62% in the assay with HT29; 23.9% in the assay on NCI-H322M; -8% in the assay with M14; 22.7% in the assay with MOLT-4. Also, the inhibition at 10 µM with MALME-3M was 19%; with PC-3 it was 13.8%; with OVCAR-5, -7.64%; with T-47D, 32%; with SK-MEL-28, 2.1%; with UACC-257, -3.21%. Besides, the inhibition at 10 µM in the assay on RPMI-8226 is -6.21%; in the assay with HOP-92, 13.4%; in the assay on UO-31 it was 28.7%.

These data come from publication PMC6352943, “Novel pyrazolo[3,4-d]pyrimidines: design, synthesis, anticancer activity, dual EGFR/ErbB2 receptor tyrosine kinases inhibitory activity, effects on cell cycle profile and caspase-3-mediated apoptosis” (Journal of Enzyme Inhibition and Medicinal Chemistry, 2019).
